Data taken from patent US8959984B2, “Proteome-wide quantification of small molecule binding to cellular target proteins” (priority 2007, dated 2015).

How the values were obtained:
Assay in all cases: binding to VI16742 beads (HeLa lysate, SILAC MS)
[1] = target: p38a (MAPK14, IPI00221141) (Homo sapiens, UniProt Q16539)
Summary of the method: (§1)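 Affinity capture: immobilised pyrido[2,3-d]pyrimidine kinase inhibitor, broad selectivity. Specific retention on the resin counted as binding.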

SART3 (IPI00006025) = target: T1, SART3 (IPI00006025) (Homo sapiens, UniProt Q15020)
T1 construct: endogenous in cells; host or cells: HeLa S3
T1 sequence (Q15020 1-963): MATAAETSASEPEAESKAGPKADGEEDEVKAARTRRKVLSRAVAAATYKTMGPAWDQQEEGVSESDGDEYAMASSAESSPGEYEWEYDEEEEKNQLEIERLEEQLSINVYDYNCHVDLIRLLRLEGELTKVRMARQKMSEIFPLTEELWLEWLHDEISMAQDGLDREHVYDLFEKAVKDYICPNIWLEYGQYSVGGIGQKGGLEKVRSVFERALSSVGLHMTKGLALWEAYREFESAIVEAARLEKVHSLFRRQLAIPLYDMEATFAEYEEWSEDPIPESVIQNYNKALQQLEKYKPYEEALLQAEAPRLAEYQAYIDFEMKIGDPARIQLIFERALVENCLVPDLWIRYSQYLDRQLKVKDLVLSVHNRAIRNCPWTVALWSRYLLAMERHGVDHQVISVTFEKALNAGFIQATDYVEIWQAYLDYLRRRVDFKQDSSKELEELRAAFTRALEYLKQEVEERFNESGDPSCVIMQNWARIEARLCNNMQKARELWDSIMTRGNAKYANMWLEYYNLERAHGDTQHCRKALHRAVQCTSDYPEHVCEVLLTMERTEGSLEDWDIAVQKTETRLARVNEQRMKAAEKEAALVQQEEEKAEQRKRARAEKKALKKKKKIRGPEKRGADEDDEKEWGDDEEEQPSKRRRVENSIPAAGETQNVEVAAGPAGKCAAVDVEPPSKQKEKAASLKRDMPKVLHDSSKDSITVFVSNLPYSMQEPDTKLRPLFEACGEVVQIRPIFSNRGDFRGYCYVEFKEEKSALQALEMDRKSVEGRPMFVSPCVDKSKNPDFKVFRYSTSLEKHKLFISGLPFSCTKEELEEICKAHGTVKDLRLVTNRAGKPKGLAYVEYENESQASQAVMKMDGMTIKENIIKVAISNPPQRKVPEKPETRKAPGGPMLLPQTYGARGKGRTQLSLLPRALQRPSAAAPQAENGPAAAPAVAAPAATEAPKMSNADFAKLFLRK
Summary of the method: as §1

CDK6 (IPI00023529) = target: T2, CDK6 (IPI00023529) (Homo sapiens, UniProt Q00534)
T2 construct: endogenous in cells; host or cells: HeLa S3
Summary of the method: as §1

MAP2K2 (IPI00003783) = target: T3, MAP2K2 (IPI00003783) (Homo sapiens, UniProt P36507)
T3 construct: endogenous in cells; host or cells: HeLa S3
Summary of the method: as §1

CSK (IPI00013212) = target: T4, CSK (IPI00013212) (Homo sapiens, UniProt P41240)
T4 construct: endogenous in cells; host or cells: HeLa S3 cell lysate
Summary of the method: as §1

SLK (IPI00022827) = target: T5, SLK (IPI00022827) (Homo sapiens, UniProt Q9H2G2)
T5 construct: endogenous in cells; host or cells: HeLa S3
Summary of the method: as §1

[2] = target: T6, NDR1 (STK38, IPI00027251) (Homo sapiens, UniProt Q15208)
T6 construct: endogenous in cells; host or cells: HeLa S3 cell lysate
Summary of the method: as §1

[3] = target: T7, TAO3 (TAOK3, IPI00410485) (Homo sapiens, UniProt Q9H2K8)
T7 construct: endogenous in cells; host or cells: HeLa S3
T7 sequence (Q9H2K8 1-898): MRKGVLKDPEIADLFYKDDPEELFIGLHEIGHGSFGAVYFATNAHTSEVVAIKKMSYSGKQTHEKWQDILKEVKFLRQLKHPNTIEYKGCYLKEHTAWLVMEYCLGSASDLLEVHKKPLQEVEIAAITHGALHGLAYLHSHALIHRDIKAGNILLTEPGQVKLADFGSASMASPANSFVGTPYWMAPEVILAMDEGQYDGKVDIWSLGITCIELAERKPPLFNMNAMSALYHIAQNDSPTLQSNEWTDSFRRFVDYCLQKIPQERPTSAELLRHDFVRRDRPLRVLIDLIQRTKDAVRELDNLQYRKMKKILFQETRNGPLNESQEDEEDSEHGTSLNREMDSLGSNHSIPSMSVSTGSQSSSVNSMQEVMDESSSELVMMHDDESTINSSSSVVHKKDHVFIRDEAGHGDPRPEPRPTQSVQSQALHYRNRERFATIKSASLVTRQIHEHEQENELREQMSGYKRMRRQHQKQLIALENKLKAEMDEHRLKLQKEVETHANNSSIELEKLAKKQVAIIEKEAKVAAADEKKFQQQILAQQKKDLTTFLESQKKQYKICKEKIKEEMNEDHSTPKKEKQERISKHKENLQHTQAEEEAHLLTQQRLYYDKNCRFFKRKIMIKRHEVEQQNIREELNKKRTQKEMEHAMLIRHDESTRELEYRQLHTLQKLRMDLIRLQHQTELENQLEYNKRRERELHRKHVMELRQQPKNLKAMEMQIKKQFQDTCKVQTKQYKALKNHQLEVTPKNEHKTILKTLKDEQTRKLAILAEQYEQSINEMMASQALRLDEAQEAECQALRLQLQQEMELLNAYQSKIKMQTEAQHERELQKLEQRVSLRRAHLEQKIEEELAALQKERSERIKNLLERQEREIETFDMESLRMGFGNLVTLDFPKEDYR
Summary of the method: as §1

[4] = control beads vs first incubation

T2 sequence (Q00534 whole entry): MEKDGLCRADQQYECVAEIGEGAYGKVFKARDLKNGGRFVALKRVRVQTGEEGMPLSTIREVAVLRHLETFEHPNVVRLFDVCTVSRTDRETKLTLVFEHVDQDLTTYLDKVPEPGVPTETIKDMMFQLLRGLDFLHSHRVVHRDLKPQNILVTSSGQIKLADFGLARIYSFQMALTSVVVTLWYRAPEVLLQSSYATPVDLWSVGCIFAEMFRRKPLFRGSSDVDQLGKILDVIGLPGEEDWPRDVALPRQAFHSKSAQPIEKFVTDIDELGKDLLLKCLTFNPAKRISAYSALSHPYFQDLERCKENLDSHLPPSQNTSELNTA
T4 sequence (P41240 whole entry): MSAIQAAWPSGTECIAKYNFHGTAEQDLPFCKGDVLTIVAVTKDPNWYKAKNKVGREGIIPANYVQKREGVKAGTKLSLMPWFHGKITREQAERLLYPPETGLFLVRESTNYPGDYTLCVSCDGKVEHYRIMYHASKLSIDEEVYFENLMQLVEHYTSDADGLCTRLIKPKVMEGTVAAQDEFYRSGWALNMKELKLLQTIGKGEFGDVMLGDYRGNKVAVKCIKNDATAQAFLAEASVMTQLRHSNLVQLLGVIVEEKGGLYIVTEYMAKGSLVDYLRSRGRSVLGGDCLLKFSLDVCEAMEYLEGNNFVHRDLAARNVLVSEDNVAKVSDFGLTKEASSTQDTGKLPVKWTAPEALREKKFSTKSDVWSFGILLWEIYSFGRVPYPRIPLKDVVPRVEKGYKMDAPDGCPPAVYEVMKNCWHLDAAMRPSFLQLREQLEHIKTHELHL
T6 sequence (Q15208 whole entry): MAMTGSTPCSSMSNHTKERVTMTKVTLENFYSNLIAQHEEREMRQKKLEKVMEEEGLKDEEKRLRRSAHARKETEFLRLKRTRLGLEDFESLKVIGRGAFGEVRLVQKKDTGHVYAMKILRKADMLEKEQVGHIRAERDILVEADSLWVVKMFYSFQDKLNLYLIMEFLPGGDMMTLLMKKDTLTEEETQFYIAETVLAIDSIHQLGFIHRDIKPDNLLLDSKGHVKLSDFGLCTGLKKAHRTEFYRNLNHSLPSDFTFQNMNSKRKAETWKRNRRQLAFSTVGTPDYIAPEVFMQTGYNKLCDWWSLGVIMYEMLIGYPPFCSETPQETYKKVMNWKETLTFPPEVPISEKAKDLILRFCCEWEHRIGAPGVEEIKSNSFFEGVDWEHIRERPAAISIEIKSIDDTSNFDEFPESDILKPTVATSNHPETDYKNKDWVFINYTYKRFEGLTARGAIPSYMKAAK
T5 sequence (Q9H2G2 whole entry): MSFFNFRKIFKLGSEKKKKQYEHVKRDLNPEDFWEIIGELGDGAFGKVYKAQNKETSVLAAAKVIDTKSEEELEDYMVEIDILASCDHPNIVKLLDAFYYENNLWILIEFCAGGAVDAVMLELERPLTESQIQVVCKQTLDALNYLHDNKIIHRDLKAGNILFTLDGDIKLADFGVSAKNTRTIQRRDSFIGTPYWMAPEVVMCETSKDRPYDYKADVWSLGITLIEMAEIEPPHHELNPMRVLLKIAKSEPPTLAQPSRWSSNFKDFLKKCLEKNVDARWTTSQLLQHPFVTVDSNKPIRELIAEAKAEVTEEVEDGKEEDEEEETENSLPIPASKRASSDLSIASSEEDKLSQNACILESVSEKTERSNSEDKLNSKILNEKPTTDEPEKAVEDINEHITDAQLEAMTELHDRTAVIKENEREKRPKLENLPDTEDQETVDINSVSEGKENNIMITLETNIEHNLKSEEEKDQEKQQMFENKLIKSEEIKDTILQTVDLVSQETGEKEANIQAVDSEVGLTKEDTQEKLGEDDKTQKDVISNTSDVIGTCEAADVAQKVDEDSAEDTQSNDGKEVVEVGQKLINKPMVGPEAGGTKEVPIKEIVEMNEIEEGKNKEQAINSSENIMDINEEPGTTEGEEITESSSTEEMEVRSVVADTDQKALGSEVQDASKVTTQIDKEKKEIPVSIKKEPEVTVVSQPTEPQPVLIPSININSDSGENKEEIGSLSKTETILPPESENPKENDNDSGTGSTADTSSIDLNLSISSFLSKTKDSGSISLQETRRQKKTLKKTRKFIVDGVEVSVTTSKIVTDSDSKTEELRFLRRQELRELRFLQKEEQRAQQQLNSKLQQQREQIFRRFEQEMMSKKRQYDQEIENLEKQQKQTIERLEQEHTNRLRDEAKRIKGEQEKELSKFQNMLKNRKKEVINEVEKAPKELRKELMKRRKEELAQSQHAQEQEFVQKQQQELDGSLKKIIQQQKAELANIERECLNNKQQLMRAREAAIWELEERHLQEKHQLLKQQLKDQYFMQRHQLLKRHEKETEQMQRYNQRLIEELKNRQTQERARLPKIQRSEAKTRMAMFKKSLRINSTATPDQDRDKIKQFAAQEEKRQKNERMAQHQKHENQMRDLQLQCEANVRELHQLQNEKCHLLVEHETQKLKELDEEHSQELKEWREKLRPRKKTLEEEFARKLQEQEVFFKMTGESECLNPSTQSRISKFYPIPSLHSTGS
T3 sequence (P36507 whole entry): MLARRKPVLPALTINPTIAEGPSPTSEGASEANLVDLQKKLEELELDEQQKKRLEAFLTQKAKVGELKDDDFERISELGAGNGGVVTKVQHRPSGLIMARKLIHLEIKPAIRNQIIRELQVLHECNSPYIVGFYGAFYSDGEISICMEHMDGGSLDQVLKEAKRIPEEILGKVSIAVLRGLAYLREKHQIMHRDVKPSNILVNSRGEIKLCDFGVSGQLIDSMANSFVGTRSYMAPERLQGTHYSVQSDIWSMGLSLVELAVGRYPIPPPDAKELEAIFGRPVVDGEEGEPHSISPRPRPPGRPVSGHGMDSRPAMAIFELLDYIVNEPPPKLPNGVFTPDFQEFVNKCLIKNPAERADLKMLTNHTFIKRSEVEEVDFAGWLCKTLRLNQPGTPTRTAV
Chain of p38a (MAPK14, IPI00221141) (Q16539 1-360 isoform Q16539-2): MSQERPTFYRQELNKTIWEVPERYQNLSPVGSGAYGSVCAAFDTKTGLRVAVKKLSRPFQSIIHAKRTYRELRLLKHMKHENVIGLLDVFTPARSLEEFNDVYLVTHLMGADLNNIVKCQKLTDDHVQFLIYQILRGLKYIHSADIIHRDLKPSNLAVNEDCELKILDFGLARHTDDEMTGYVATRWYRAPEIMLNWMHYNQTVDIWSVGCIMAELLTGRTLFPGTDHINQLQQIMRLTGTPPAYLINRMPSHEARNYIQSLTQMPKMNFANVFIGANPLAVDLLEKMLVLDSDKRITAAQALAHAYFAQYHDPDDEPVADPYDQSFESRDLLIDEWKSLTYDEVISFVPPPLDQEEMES

CC(C)n1c(=O)ccc2cnc(Nc3ccc(OCCN)cc3)nc21 [V16742]
r (5 h/2.5 h INC. TIME) ([1]; 5 h vs 2.5 h incubation time): 2.16
rAVERAGE (CTRL/1 INC) [1, 4]: 0.10
Ki ([1]; immobilized VI16742): 92.8 µM
rAVERAGE (2 INC/1 INC) ([1]; second vs first incubation): 0.64
r (3 MG/1 MG LYSATE) (SART3 (IPI00006025); 3 mg vs 1 mg lysate): 2.07
r (5 h/2.5 h INC. TIME) (SART3 (IPI00006025); 5 h vs 2.5 h incubation time): 0.90
rAVERAGE (CTRL/1 INC) (SART3 (IPI00006025); [4]): 0.05
Ki (SART3 (IPI00006025); immobilized VI16742): 126 µM
rAVERAGE (2 INC/1 INC) (SART3 (IPI00006025); second vs first incubation): 0.71
r (5 h/2.5 h INC. TIME) (CDK6 (IPI00023529); 5 h vs 2.5 h incubation time): 0.75
rAVERAGE (CTRL/1 INC) (CDK6 (IPI00023529); [4]): 0.10
Ki (CDK6 (IPI00023529); immobilized VI16742): 119 µM
rAVERAGE (2 INC/1 INC) (CDK6 (IPI00023529); second vs first incubation): 0.70
r (5 h/2.5 h INC. TIME) (MAP2K2 (IPI00003783); 5 h vs 2.5 h incubation time): 2.03
rAVERAGE (CTRL/1 INC) (MAP2K2 (IPI00003783); [4]): 0.03
Ki (MAP2K2 (IPI00003783); immobilized VI16742): 177 µM
rAVERAGE (2 INC/1 INC) (MAP2K2 (IPI00003783); second vs first incubation): 0.77
r (5 h/2.5 h INC. TIME) (CSK (IPI00013212); 5 h vs 2.5 h incubation time): 1.51
rAVERAGE (CTRL/1 INC) (CSK (IPI00013212); [4]): 0.02
Ki (CSK (IPI00013212); immobilized VI16742): 79.5 µM
rAVERAGE (2 INC/1 INC) (CSK (IPI00013212); second vs first incubation): 0.60
r (3 MG/1 MG LYSATE) (SLK (IPI00022827); 3 mg vs 1 mg lysate): 3.22
r (5 h/2.5 h INC. TIME) (SLK (IPI00022827); 5 h vs 2.5 h incubation time): 1.87
rAVERAGE (CTRL/1 INC) (SLK (IPI00022827); [4]): 0.05
Ki (SLK (IPI00022827); immobilized VI16742): 217 µM
rAVERAGE (2 INC/1 INC) (SLK (IPI00022827); second vs first incubation): 0.81
rAVERAGE (CTRL/1 INC) [2, 4]: 0.01
Ki ([2]; immobilized VI16742): 78.3 µM
rAVERAGE (2 INC/1 INC) ([2]; second vs first incubation): 0.60
r (3 MG/1 MG LYSATE) ([3]; 3 mg vs 1 mg lysate): 2.95
rAVERAGE (CTRL/1 INC) [3, 4]: 0.09
Ki ([3]; immobilized VI16742): 116 µM
rAVERAGE (2 INC/1 INC) ([3]; second vs first incubation): 0.69
